In ChEMBL document CHEMBL2010638, “Synthesis and evaluation of disulfide bond mimetics of amylin-(1-8) as agents to treat osteoporosis” (Bioorg Med Chem, 2012):
Activity calls are given as the source filed them. No cut-off for these calls is given here. *1 amine or outer side, *2 acyl side, *3 side chain or, on linkers, in order; H or OH if unused. Where a SMILES comes first, the peptide text is derived from it. Bridges are numbered along the chain shown (N, C = ends). Triazole bridges read from a SMILES are 1,4-linked. [ ]: non-standard residue; d: D form. Dap(N3) = [N-]=[N+]=NC[C@H](N)C(=O)O; oXylylene = c1ccc(C[*:2])c(C[*:1])c1; pXylylene = c1cc(C[*:2])ccc1C[*:1]; Pra = C#CC[C@H](N)C(=O)O; CH2CH2 = C(C[*:2])[*:1]; X2 = O=C(CC[*:2])[*:1]; X1 = C(C[*:1])C[*:2]

Test system: Calvarial osteoblast
Test: Induction of osteoblast differentiation in rat fetal calvarial osteoblast assessed as [3H]thymidine incorporation at 10^-8 to 10^-10 after 6 hrs
Assay type: functional, cell-based

Row | SMILES | Activity
1 | C[C@H](NC(=O)[C@@H]1CSSC[C@H](NC(=O)[C@@H](N)CCCCN)C(=O)N[C@@H](CC(N)=O)C(=O)N[C@@H]([C@@H](C)O)C(=O)N[C@@H](C)C(=O)N[C@@H]([C@@H](C)O)C(=O)N1)C(N)=O (H-KCNTATCA-NH2; disulfide 2-7) | Active
2 | C[C@H](NC(=O)[C@@H]1CSCCSC[C@H](NC(=O)[C@@H](N)CCCCN)C(=O)N[C@@H](CC(N)=O)C(=O)N[C@@H]([C@@H](C)O)C(=O)N[C@@H](C)C(=O)N[C@@H]([C@@H](C)O)C(=O)N1)C(N)=O (H-KCNTATCA-NH2; linker 2-7 via CH2CH2) | inactive
3 | C[C@H](NC(=O)[C@@H]1CSCCCSC[C@H](NC(=O)[C@@H](N)CCCCN)C(=O)N[C@@H](CC(N)=O)C(=O)N[C@@H]([C@@H](C)O)C(=O)N[C@@H](C)C(=O)N[C@@H]([C@@H](C)O)C(=O)N1)C(N)=O (H-KCNTATCA-NH2; linker 2-7 via X1) | inactive
4 | C[C@H](NC(=O)[C@@H]1CSCc2ccccc2CSC[C@H](NC(=O)[C@@H](N)CCCCN)C(=O)N[C@@H](CC(N)=O)C(=O)N[C@@H]([C@@H](C)O)C(=O)N[C@@H](C)C(=O)N[C@@H]([C@@H](C)O)C(=O)N1)C(N)=O (H-KCNTATCA-NH2; linker 2-7 via oXylylene) | inactive
5 | C[C@H](NC(=O)[C@@H]1CSCc2ccc(cc2)CSC[C@H](NC(=O)[C@@H](N)CCCCN)C(=O)N[C@@H](CC(N)=O)C(=O)N[C@@H]([C@@H](C)O)C(=O)N[C@@H](C)C(=O)N[C@@H]([C@@H](C)O)C(=O)N1)C(N)=O (H-KCNTATCA-NH2; linker 2-7 via pXylylene) | Active
6 | C[C@H](NC(=O)[C@@H]1CSCCC(=O)NCCCC[C@H](NC(=O)[C@@H](N)CCCCN)C(=O)N[C@@H](CC(N)=O)C(=O)N[C@@H]([C@@H](C)O)C(=O)N[C@@H](C)C(=O)N[C@@H]([C@@H](C)O)C(=O)N1)C(N)=O (H-KKNTATCA-NH2; linker 2-7 via X2) | inactive
7 | C[C@H](NC(=O)[C@@H]1Cn2cc(nn2)C[C@H](NC(=O)[C@@H](N)CCCCN)C(=O)N[C@@H](CC(N)=O)C(=O)N[C@@H]([C@@H](C)O)C(=O)N[C@@H](C)C(=O)N[C@@H]([C@@H](C)O)C(=O)N1)C(N)=O (H-K[Pra]NTAT[Dap(N3)]A-NH2; triazole 2-7) | inactive
